Assay results reported in patent US9682955B2, “Quinazoline derivatives useful as CB-1 inverse agonists” (Janssen Pharmaceutica NV, priority 2014, dated 2017).

Legend:
[1] = target: Human CB1R (Cannabanoid receptor 1) (Homo sapiens (Human), UniProt P21554); experiment: CB-1 in vitro cAMP assay (HTRF); assay type: cell-based; conditions: mean where tested more than once
Description: (§1) CB1 and CB2 receptors are Gi-coupled GPCR. Activation of CB1 and CB2 receptors results in a decrease in cAMP production. An inverse agonist of the CB1 or CB2 receptor results in the opposite effect, an increase of cAMP production. The principle of this assay is based on HTRF® technology (Homogeneous Time-Resolved Fluorescence). The method is a competitive immunoassay between native cAMP produced by cells and the cAMP labeled with the fluorophore d2. The tracer binding is quantified by a Mab anti-cAMP labeled with Eu3+TBP-NHS Cryptate (supplied as part of the assay kit). The specific signal (i.e. energy transfer) is inversely proportional to the concentration of cAMP in the standard or sample.
(§2) Human CB1R (Cannabanoid receptor 1) was stably transfected in HEK-293 cells (DiscoveRx, cat: 93-0200C1). Human CB2R (Cannabanoid receptor 2) was stably transfected in HEK-293 cells (DiscoveRx, cat: 93-0201C1). Cell cultures were maintained in media: DMEM (Invitrogen Cat#12430-054) supplemented with 10% HI FBS (Invitrogen Cat#16140-071), 1% L-glutamine (Invitrogen Cat#25030-081), 0.2 mg/ml Hygromycin B (Invitrogen Cat#10687-010), 600 μg/mL G418 (Invitrogen Cat#10131-035), and 1× Penn/Strep (Invitrogen 15140-122). After cell expansion, aliquots were cryo-stored in media containing 5% DMSO (Pierce Cat#20684).
(§3) One day prior to experiments media was warmed to 37° C. and the cryo-stored cells were thawed in a 37° C. water bath. The cells were then added to media (10× volume) and the mixture was centrifugated at 1000 RPM for 5 min. The supernate was removed and the cells were re-suspended in media. A sample of the cell suspension was evaluated on a Cedex XS automated cell counter (Innovatis Systems) to determine viable cells/ml. Additional media was added to the cells to achieve a final cell density of 4E5 cells/mL. The cells were then plated into 384 well PDL white solid bottom plates (Greiner, Cat#781945) at 20 μL per well using a Multidrop (Thermo Scientific). Cells were removed from Row P (location of cAMP standards). Two columns of cells were plated into a clear bottom 384 well PDL coated plate (Greiner, Cat#781944) to view confluence the day of the assay. The cell plates were lidded and stored for 15 minutes in a hood, then transferred to an incubator (37° C., 5% CO2, 95% humidity) overnight.
(§4) DMSO was added to all wells of 384 well V bottom polystyrene plate (Greiner, Cat#781280) except to columns 1 and 13, rows O and P and wells M13-M23 and N13-N23. Test compounds (60 μL, 10 mM) were added to Column 1 and 13 (A1 through N1 and A13 through L13). Test compounds were serially diluted 1/3 by transferring and mixing 20 μl sample with 40 μL DMSO.
(§5) DMSO (40 μL) was added to wells of 384 well V bottom polystyrene plate: O2 through O11, M14 through M23, N14 through N23, and O14 through O23. AM630 (also known as [6-iodo-2-methyl-1-[2-(4-morpholinyl)ethyl]-1H-indol-3-yl](4-methoxyphenyl)-methanone, Cayman Chemical, Cat#10006974) (60 μL, 10 mM) was added to O1; and 1-(2,4-dichlorophenyl)-7-[(4-fluorophenyl)methylene]-4,5,6,7-tetrahydro-N-1-piperidinyl-1H-indazole-3-carboxamide (60 μL, 10 mM) was added to N13. The control was serially diluted 1/3 by transferring and mixing 20 μl sample with 40 μL DMSO. This process resulted 11 doses per control, 10 mM to […].
(§6) Cells plated the day prior to the assay in clear bottom plates were viewed on an inverse microscope to ensure confluency in the range of 60-75%. […]

[2] = target: Human CB2R (Cannabanoid receptor 2) (Homo sapiens (Human), UniProt P34972); experiment: CB-2 in vitro cAMP assay (HTRF); assay type: cell-based; conditions: mean where tested more than once
Description: as §1, §2, §3, §4, §5, §6

Chain of Human CB2R (Cannabanoid receptor 2) (P34972 whole entry): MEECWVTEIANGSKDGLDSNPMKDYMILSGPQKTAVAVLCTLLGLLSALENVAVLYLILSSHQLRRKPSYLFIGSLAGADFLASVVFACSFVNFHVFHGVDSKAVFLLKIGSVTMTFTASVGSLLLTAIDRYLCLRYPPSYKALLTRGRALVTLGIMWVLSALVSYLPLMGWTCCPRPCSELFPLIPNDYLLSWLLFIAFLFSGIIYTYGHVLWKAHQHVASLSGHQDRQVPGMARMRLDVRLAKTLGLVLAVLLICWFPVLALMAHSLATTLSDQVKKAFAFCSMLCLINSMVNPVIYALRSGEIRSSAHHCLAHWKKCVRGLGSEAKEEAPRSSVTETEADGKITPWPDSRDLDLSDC
Chain of Human CB1R (Cannabanoid receptor 1) (P21554 whole entry): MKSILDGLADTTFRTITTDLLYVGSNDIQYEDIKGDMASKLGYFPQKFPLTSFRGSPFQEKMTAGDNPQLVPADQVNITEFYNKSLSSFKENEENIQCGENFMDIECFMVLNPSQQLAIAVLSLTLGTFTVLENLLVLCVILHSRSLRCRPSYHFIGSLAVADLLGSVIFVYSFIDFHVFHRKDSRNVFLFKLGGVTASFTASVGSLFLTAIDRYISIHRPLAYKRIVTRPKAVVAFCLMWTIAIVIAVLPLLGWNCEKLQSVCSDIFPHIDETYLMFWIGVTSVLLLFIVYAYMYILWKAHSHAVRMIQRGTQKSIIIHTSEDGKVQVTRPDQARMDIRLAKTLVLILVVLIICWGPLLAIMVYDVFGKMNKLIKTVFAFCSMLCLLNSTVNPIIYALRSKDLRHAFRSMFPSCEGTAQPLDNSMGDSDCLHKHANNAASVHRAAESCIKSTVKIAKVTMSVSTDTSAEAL

For `NC(=O)CCCOc1nc(NCc2ccc(C(F)(F)F)cc2)c2cc(C(c3ccc(Cl)cc3)c3ccc(Cl)cc3)ccc2n1` [Compound #66, 4-((6-(bis(4-chlorophenyl)methyl)-4-((4-(trifluoromethyl)benzyl)amino)quinazolin-2-yl)oxy)butanamide], the EC50 [1] was 8 nM and the EC50 [2] was 845 nM.

In the case of `Fc1ccc(C(c2ccc(F)cc2)c2ccc3ncnc(NC4CCN(c5ccccc5)CC4)c3c2)cc1` [Compound #67, 6-(bis(4-fluorophenyl)methyl)-N-(1-phenylpiperidin-4-yl)quinazolin-4-amine], the EC50 [1] is reported as 1 nM and the EC50 [2] is reported as 1150 nM.

`O=C(O)c1ccc(C(=O)N2CCC(Nc3ncnc4ccc(C(c5ccc(Cl)cc5)c5ccc(Cl)cc5)cc34)CC2)cc1` [Compound #68, 4-(4-((6-(bis(4-chlorophenyl)methyl)quinazolin-4-yl)amino)piperidine-1-carbonyl)benzoic acid] gave an EC50 [1] of 950 nM and an EC50 [2] greater than 10000 nM.

`CC(=O)NCCOc1nc(NCc2ccc(C(F)(F)F)cc2)c2cc(C(c3ccc(Cl)cc3)c3ccc(Cl)cc3)ccc2n1` [Compound #69, N-(2-((6-(bis(4-chlorophenyl)methyl)-4-((4-(trifluoromethyl)benzyl)amino)quinazolin-2-yl)oxy)ethyl)acetamide] was tested, and the EC50 [1] was 98 nM and the EC50 [2] was greater than 10000 nM.

Work on `OCCCCOc1nc(NCc2ccc(C(F)(F)F)cc2)c2cc(C(c3ccc(Cl)cc3)c3ccc(Cl)cc3)ccc2n1` [Compound #71, 4-((6-(bis(4-chlorophenyl)methyl)-4-((4-(trifluoromethyl)benzyl)amino)quinazolin-2-yl)oxy)butan-1-ol] yielded an EC50 [1] of 19 nM and an EC50 [2] greater than 10000 nM.

For `NCCOc1nc(NCc2ccc(C(F)(F)F)cc2)c2cc(C(c3ccc(Cl)cc3)c3ccc(Cl)cc3)ccc2n1` [Compound #72, 2-(2-aminoethoxy)-6-(bis(4-chlorophenyl)methyl)-N-(4-(trifluoromethyl)benzyl)quinazolin-4-amine], the EC50 [1] was 51 nM and the EC50 [2] was greater than 10000 nM.

Compound `COC(=O)c1ccc(C(=O)N2CCC(Nc3ncnc4ccc(C(c5ccc(Cl)cc5)c5ccc(Cl)cc5)cc34)CC2)cc1` [Compound #73, methyl 4-(4-((6-(bis(4-chlorophenyl)methyl)quinazolin-4-yl)amino)piperidine-1-carbonyl)benzoate] has an EC50 [1] of 14 nM and an EC50 [2] of 4430 nM.

Compound `NC(=O)Cc1ccc(N2CCC(Nc3ncnc4ccc(C(c5ccc(Cl)cc5)c5ccc(Cl)cc5)cc34)CC2)cc1` [Compound #74, 2-(4-(4-((6-(bis(4-chlorophenyl)methyl)quinazolin-4-yl)amino)piperidin-1-yl)phenyl)acetamide] has an EC50 [1] of 82 nM and an EC50 [2] of 178 nM.

With `[N-]=[N+]=NCCOc1nc(NCc2ccc(C(F)(F)F)cc2)c2cc(C(c3ccc(Cl)cc3)c3ccc(Cl)cc3)ccc2n1` [Compound #75, 2-(2-azidoethoxy)-6-(bis(4-chlorophenyl)methyl)-N-(4-(trifluoromethyl)benzyl)quinazolin-4-amine] the EC50 [1] was 5 nM and the EC50 [2] was greater than 10000 nM.

`O=S(=O)(CCO)N1CCC(Nc2ncnc3ccc(C(c4ccc(Cl)cc4)c4ccc(Cl)cc4)cc23)CC1` [Compound #78, 2-((4-((6-(bis(4-chlorophenyl)methyl)quinazolin-4-yl)amino)piperidin-1-yl)sulfonyl)ethanol] was tested, and the EC50 [1] was 16 nM and the EC50 [2] was 9400 nM.

With `COC(=O)Cc1ccc(N2CCC(Nc3ncnc4ccc(C(c5ccc(Cl)cc5)c5ccc(Cl)cc5)cc34)CC2)cc1` [Compound #79, Methyl 2-(4-(4-((6-(bis(4-chlorophenyl)methyl)quinazolin-4-yl)amino)piperidin-1-yl)phenyl)acetate] the EC50 [1] was 4 nM and the EC50 [2] was 173 nM.

`CCOC(=O)CCC(=O)N1CCC(Nc2ncnc3ccc(C(c4ccc(Cl)cc4)c4ccc(Cl)cc4)cc23)CC1` [Compound #81, Ethyl 4-(4-((6-(bis(4-chlorophenyl)methyl)quinazolin-4-yl)amino)piperidin-1-yl)-4-oxobutanoate] gave an EC50 [1] of 2 nM and an EC50 [2] of 452 nM.

Work on `O=C(NCCO)c1ccc(N2CCC(Nc3ncnc4ccc(C(c5ccc(Cl)cc5)c5ccc(Cl)cc5)cc34)CC2)cc1` [Compound #84, 4-(4-((6-(bis(4-chlorophenyl)methyl)quinazolin-4-yl)amino)piperidin-1-yl)-N-(2-hydroxyethyl)benzamide] yielded an EC50 [1] of 26 nM and an EC50 [2] of 326 nM.

For `COc1nc(NCc2ccc(C(F)(F)F)cc2)c2cc(C(c3ccc(Cl)cc3)c3ccc(Cl)cc3)ccc2n1` [Compound #85, 6-(bis(4-chlorophenyl)methyl)-2-methoxy-N-(4-(trifluoromethyl)benzyl)quinazolin-4-amine], the EC50 [1] was 10 nM and the EC50 [2] was greater than 10000 nM.

For `NC(=O)CCC(=O)N1CCC(Nc2ncnc3ccc(C(c4ccc(Cl)cc4)c4ccc(Cl)cc4)cc23)CC1` [Compound #86, 4-(4-((6-(bis(4-chlorophenyl)methyl)quinazolin-4-yl)amino)piperidin-1-yl)-4-oxobutanamide], the EC50 [1] was 2460 nM and the EC50 [2] was 9000 nM.

In the case of `NC(=O)c1ccc(N2CCC(Nc3ncnc4ccc(C(c5ccc(Cl)cc5)c5ccc(Cl)cc5)cc34)CC2)cc1` [Compound #90, 4-(4-((6-(bis(4-chlorophenyl)methyl)quinazolin-4-yl)amino)piperidin-1-yl)benzamide], the EC50 [1] is reported as 34 nM and the EC50 [2] is reported as 461 nM.

`COCCOc1nc(NCc2ccc(C(F)(F)F)cc2)c2cc(C(c3ccc(Cl)cc3)c3ccc(Cl)cc3)ccc2n1` [Compound #91, 6-(bis(4-chlorophenyl)methyl)-2-(2-methoxyethoxy)-N-(4-(trifluoromethyl)benzyl)quinazolin-4-amine] was tested, and the EC50 [1] was 30 nM and the EC50 [2] was greater than 10000 nM.

`O=C(O)c1ccc(N2CCC(Nc3ncnc4ccc(C(c5ccc(Cl)cc5)c5ccc(Cl)cc5)cc34)CC2)cc1` [Compound #92, 4-(4-((6-(bis(4-chlorophenyl)methyl)quinazolin-4-yl)amino)piperidin-1-yl)benzoic acid] was tested, and the EC50 [1] was 695 nM and the EC50 [2] was 195 nM.

`COC(=O)c1ccc(N2CCC(Nc3ncnc4ccc(C(c5ccc(Cl)cc5)c5ccc(Cl)cc5)cc34)CC2)cc1` [Compound #94, methyl 4-(4-((6-(bis(4-chlorophenyl)methyl)quinazolin-4-yl)amino)piperidin-1-yl)benzoate] showed an EC50 [1] of 4 nM and an EC50 [2] of 68 nM.

`NC(=O)CS(=O)(=O)N1CCC(Nc2ncnc3ccc(C(c4ccc(Cl)cc4)c4ccc(Cl)cc4)cc23)CC1` [Compound #98, 2-((4-((6-(bis(4-chlorophenyl)methyl)quinazolin-4-yl)amino)piperidin-1-yl)sulfonyl)acetamide] gave an EC50 [1] of 232 nM and an EC50 [2] of 7900 nM.

`OC1(c2ccccc2)CCC(Nc2ncnc3ccc(C(c4ccc(Cl)cc4)c4ccc(Cl)cc4)cc23)CC1` (stereo not shown) [Compound #99, 4-((6-(bis(4-chlorophenyl)methyl)quinazolin-4-yl)amino)-1-phenylcyclohexanol] was tested, and the EC50 [1] was 1 nM and the EC50 [2] was 8490 nM.

For `CS(=O)(=O)Nc1nc(NC2CCN(S(=O)(=O)C(F)(F)F)CC2)c2cc(C(c3ccc(Cl)cc3)c3ccc(Cl)cc3)ccc2n1` [Compound #100, N-(6-(bis(4-chlorophenyl)methyl)-4-((1-((trifluoromethyl)sulfonyl)piperidin-4-yl)amino)quinazolin-2-yl)methanesulfonamide], the EC50 [1] was 432 nM and the EC50 [2] was greater than 10000 nM.

`O=C1CC(Nc2ncnc3ccc(C(c4ccc(Cl)cc4)c4ccc(Cl)cc4)cc23)CCN1c1ccccc1` (stereo not shown) [Compound #102, 4-((6-(bis(4-chlorophenyl)methyl)quinazolin-4-yl)amino)-1-phenylpiperidin-2-one] showed an EC50 [1] of 10 nM and an EC50 [2] greater than 10000 nM.
